{
  "source": "ChEMBL document CHEMBL5653615",
  "about": "(J Biol Chem, 2013)",
  "key": {"[1]": {"target": "Calcium/calmodulin-dependent protein kinase type 1B (Homo sapiens) (UniProt Q6P2M8)", "sequence (Q6P2M8 whole entry)": "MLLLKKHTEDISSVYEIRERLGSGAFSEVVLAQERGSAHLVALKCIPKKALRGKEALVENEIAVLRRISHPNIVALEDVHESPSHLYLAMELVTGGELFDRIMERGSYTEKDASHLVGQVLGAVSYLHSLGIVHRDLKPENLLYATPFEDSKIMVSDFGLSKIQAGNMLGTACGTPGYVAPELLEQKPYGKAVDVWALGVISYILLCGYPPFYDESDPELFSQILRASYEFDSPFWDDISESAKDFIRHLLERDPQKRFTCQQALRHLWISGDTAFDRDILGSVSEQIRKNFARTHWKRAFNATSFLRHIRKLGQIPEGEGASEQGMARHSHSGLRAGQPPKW", "assay": "Inhibition of human CAMK1b at 18.6 nM by HotSpot assay relative to control"}, "[2]": {"target": "Calcium/calmodulin-dependent protein kinase type II subunit delta (Homo sapiens) (UniProt Q13557)", "sequence (Q13557 whole entry)": "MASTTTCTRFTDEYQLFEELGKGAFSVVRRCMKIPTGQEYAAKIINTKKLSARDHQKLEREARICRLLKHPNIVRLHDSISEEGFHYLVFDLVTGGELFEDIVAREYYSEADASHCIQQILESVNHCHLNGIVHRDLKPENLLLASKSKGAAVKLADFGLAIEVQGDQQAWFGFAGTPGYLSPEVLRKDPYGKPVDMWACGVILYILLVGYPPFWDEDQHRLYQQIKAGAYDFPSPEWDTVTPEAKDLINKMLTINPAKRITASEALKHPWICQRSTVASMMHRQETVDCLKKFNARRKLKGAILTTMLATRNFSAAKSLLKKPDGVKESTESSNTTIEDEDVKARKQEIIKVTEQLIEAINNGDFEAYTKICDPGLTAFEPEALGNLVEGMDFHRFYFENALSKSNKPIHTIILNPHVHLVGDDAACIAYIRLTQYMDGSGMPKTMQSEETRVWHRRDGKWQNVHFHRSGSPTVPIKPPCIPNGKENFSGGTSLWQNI", "assay": "Inhibition of human CAMK2d at 18.6 nM by HotSpot assay relative to control"}, "[3]": {"target": "CDK3/Cyclin E (Homo sapiens) (UniProt P24864+Q00526)", "sequence (P24864 whole entry, looked up)": "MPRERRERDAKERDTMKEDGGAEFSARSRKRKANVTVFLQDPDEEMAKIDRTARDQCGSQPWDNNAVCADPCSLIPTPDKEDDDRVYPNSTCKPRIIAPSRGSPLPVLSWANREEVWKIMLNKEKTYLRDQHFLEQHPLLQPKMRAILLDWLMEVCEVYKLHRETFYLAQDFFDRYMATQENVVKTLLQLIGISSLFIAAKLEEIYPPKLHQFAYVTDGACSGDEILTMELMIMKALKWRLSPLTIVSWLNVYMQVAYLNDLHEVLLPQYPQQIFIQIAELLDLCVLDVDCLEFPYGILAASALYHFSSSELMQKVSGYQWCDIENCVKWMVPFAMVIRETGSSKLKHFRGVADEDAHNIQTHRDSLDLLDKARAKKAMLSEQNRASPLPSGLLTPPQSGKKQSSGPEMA", "sequence (Q00526 whole entry, looked up)": "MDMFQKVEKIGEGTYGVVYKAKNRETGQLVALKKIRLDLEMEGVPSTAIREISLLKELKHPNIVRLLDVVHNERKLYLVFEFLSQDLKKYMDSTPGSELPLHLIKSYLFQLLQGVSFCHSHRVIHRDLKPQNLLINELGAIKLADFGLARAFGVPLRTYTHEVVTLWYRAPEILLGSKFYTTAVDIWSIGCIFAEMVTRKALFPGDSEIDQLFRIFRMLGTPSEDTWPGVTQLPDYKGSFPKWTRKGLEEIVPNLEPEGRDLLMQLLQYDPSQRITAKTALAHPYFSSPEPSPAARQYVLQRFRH", "assay": "Inhibition of human CDK3/cyclin E at 18.6 nM by HotSpot assay relative to control", "type": "protein-complex assay"}, "[4]": {"target": "CDK6/cyclin D3 (Homo sapiens) (UniProt P30281+Q00534)", "assay": "Inhibition of human CDK6/cyclin D3 at 18.6 nM by HotSpot assay relative to control", "type": "protein-complex assay"}, "[5]": {"target": "T1, Tyrosine-protein kinase Tec (Homo sapiens) (UniProt P42680)", "T1 sequence (whole entry)": "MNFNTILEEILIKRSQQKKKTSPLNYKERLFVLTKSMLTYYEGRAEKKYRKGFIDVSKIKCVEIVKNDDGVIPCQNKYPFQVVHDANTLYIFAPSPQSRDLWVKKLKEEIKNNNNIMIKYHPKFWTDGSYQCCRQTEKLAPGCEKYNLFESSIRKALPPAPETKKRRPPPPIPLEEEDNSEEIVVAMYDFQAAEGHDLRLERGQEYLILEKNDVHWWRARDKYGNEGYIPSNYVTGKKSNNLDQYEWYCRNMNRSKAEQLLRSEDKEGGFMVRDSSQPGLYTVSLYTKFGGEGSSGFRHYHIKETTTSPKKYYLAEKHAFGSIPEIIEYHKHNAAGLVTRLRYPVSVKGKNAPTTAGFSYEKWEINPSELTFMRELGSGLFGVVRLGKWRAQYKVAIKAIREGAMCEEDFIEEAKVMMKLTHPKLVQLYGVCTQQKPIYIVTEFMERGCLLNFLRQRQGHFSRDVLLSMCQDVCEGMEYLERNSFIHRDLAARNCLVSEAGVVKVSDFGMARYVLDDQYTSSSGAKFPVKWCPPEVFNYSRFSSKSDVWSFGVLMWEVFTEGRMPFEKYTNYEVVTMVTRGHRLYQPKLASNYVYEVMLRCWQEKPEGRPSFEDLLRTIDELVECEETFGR", "assay": "Inhibition of human TEC at 18.6 nM by HotSpot assay relative to control"}, "[6]": {"target": "Tyrosine-protein kinase CSK (Homo sapiens) (UniProt P41240)", "sequence (P41240 2-450 limits assumed)": "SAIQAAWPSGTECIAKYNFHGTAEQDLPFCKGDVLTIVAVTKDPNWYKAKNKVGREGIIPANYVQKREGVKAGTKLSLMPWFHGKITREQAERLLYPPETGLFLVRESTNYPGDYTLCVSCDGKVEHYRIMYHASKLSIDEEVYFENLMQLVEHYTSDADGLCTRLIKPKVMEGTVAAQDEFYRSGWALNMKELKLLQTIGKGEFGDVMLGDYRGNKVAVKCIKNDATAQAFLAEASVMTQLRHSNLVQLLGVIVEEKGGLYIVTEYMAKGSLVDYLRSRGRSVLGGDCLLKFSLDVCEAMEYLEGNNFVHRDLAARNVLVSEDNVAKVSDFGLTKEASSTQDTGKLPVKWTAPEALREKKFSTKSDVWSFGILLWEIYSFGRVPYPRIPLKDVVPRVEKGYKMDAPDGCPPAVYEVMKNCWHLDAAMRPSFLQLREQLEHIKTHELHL", "assay": "Inhibition of human CSK at 1.82 nM by HotSpot assay relative to control"}, "[7]": {"target": "T2, Serine/threonine-protein kinase DCLK2 (Homo sapiens) (UniProt Q8N568)", "T2 sequence (whole entry)": "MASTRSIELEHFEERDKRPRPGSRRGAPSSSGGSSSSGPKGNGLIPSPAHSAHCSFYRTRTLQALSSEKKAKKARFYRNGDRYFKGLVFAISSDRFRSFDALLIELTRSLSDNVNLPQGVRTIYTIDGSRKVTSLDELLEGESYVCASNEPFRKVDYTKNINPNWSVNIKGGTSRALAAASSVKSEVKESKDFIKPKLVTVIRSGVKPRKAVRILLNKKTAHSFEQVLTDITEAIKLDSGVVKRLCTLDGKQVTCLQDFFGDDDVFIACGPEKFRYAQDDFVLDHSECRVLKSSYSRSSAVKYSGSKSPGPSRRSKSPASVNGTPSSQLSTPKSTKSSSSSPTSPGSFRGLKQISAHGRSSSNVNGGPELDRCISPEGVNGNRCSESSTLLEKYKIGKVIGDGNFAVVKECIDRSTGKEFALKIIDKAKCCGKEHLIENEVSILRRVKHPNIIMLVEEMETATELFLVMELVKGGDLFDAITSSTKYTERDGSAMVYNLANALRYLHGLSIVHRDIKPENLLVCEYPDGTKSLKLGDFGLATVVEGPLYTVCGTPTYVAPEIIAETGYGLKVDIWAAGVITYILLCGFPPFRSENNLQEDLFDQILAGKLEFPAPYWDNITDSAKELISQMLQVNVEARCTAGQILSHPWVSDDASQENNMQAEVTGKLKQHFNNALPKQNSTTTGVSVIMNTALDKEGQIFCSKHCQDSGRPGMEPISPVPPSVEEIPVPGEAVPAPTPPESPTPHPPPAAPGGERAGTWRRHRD", "assay": "Inhibition of human DCAMKL2 at 1.82 nM by HotSpot assay relative to control"}, "[8]": {"target": "Fibroblast growth factor receptor 4 (Homo sapiens) (UniProt P22455)", "sequence (P22455 22-802 limits assumed)": "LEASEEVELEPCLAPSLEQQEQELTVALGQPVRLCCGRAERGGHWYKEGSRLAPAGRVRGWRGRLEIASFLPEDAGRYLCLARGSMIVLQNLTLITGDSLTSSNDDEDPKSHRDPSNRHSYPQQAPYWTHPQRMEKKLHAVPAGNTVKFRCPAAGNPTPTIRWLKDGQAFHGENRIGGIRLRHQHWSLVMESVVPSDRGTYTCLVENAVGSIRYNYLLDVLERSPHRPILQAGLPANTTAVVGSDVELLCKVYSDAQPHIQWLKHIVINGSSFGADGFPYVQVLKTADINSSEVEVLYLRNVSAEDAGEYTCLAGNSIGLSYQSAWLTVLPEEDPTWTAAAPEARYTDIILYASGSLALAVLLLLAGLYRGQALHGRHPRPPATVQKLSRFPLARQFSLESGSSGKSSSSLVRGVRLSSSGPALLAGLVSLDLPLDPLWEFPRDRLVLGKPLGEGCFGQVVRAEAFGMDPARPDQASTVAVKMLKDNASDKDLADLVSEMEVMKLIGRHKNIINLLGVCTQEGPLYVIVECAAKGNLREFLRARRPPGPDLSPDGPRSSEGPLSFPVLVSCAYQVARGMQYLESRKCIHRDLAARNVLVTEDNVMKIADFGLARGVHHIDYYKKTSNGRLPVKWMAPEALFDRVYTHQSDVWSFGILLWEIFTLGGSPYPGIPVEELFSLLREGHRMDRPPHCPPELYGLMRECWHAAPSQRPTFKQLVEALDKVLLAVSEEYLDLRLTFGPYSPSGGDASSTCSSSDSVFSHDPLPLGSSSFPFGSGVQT", "assay": "Inhibition of human FGFR4 at 1.82 nM by HotSpot assay relative to control"}, "[9]": {"target": "Interleukin-1 receptor-associated kinase 1 (Homo sapiens) (UniProt P51617)", "sequence (P51617 whole entry, looked up)": "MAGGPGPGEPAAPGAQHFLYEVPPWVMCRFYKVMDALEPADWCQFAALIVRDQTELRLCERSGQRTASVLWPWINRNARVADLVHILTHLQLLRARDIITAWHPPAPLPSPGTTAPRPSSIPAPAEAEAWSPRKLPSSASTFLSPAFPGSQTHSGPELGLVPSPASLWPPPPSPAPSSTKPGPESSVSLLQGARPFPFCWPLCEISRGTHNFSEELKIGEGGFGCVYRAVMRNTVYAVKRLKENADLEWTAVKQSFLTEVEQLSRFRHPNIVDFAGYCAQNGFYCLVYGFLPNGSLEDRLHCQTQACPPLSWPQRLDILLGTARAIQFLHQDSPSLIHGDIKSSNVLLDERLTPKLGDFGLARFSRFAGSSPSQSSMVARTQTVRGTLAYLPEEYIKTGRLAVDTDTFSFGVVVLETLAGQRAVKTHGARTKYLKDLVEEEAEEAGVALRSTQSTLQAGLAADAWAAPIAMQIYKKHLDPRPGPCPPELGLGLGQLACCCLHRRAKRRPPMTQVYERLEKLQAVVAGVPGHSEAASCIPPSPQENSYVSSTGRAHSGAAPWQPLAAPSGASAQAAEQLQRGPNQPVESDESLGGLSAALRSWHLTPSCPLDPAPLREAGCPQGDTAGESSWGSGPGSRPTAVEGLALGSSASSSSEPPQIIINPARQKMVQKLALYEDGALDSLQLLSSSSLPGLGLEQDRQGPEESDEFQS", "assay": "Inhibition of human IRAK1 at 1.82 nM by HotSpot assay relative to control"}, "[10]": {"target": "Serine/threonine-protein kinase PAK 2 (Homo sapiens) (UniProt Q13177)", "sequence (Q13177 whole entry)": "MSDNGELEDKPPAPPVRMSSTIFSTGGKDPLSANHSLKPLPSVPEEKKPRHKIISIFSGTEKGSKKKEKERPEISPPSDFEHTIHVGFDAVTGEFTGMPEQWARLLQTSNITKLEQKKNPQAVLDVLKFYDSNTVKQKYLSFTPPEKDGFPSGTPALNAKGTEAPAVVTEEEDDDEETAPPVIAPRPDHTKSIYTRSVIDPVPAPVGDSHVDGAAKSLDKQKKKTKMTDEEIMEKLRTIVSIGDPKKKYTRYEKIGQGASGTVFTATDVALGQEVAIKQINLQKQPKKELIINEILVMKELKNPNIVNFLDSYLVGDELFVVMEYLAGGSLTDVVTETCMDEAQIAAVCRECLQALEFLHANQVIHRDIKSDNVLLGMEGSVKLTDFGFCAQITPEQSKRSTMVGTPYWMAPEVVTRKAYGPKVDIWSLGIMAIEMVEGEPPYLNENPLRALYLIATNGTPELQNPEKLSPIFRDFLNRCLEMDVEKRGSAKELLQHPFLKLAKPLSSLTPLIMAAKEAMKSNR", "assay": "Inhibition of human PAK2 at 1.82 nM by HotSpot assay relative to control"}, "[11]": {"target": "T3, Dual serine/threonine and tyrosine protein kinase (Homo sapiens) (UniProt Q6XUX3)", "T3 sequence (whole entry)": "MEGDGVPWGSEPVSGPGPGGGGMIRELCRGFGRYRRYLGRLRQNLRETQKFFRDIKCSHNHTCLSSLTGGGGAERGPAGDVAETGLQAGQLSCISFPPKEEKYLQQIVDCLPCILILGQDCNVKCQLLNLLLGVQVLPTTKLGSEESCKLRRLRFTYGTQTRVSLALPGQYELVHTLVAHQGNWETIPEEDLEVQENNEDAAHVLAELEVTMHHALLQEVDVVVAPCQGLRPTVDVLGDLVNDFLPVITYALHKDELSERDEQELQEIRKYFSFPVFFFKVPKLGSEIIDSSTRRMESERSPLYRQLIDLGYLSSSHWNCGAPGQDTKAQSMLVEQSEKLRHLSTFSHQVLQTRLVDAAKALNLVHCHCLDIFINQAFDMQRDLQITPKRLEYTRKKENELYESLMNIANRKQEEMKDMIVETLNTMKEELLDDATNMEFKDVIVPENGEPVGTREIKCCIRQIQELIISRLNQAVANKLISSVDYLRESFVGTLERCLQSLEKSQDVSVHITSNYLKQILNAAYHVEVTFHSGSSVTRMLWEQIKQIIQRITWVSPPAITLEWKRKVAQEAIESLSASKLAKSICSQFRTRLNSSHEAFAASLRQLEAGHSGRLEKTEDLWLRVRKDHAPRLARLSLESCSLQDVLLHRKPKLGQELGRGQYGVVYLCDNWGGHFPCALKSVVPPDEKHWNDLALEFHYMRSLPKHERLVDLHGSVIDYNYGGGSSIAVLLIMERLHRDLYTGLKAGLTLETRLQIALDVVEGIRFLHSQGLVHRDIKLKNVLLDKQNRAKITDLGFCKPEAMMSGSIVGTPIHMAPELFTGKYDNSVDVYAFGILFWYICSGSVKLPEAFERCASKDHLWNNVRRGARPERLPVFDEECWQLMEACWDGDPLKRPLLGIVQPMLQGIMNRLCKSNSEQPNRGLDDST", "assay": "Inhibition of human RIPK5 at 1.82 nM by HotSpot assay relative to control"}},
  "data": [
    {"smiles": "C[C@]1(O)C[C@@H](c2nc(-c3ccc4ccc(-c5ccccc5)nc4c3)c3c(N)nccn32)C1", "values": [
      {"measurement": "inhibition", "setting": "[1]", "value": -4.62, "unit": "%"},
      {"measurement": "inhibition", "setting": "[2]", "value": 0.37, "unit": "%"},
      {"measurement": "inhibition", "setting": "[3]", "value": 0.86, "unit": "%"},
      {"measurement": "inhibition", "setting": "[4]", "value": -9.8, "unit": "%"},
      {"measurement": "inhibition", "setting": "[5]", "value": 2.21, "unit": "%"}
    ]},
    {"smiles": "C[C@@]1(C(=O)Nc2ccc(F)nc2)CCCN1c1nc(Nc2cc(C3CC3)n[nH]2)c2cccn2n1", "values": [
      {"measurement": "inhibition", "setting": "[6]", "value": 3.45, "unit": "%"},
      {"measurement": "inhibition", "setting": "[7]", "value": 3.94, "unit": "%"},
      {"measurement": "inhibition", "setting": "[8]", "value": 6.74, "unit": "%"},
      {"measurement": "inhibition", "setting": "[9]", "value": -7.77, "unit": "%"},
      {"measurement": "inhibition", "setting": "[10]", "value": -8.78, "unit": "%"},
      {"measurement": "inhibition", "setting": "[11]", "value": 4.61, "unit": "%"}
    ]}
  ]
}
